Values quoted from earlier work as cited in patent US7718389B2, “Stabilizing composition and stabilizing method of coelenterazine solution for high-throughput measurement of luciferase activity” (National Institute of Advanced Industrial Science and …, priority 2006, dated 2010).

Settings: background statement

pKa value of proton of an imidazopyrazinone ring: around 7.4
SMILES: Oc1ccc(Cc2nc3c(Cc4ccccc4)nc(-c4ccc(O)cc4)cn3c2O)cc1 [coelenterazine]
